Experimental data published in US10913736B2 (UNIVERSITY OF WASHINGTON, priority 2014, dated 2021).
pEC50, pIC50: −log10 of the molar value. Where “and” joins values, the source holds several entries; their conditions need not be identical. Equal values may be shown once.

How the values were obtained:
T. brucei = assay: Growth inhibition assay of T. brucei cell cultures (Alamar Blue, 48 h); format: cell-based; conditions: Trypanosoma brucei; read-out: B) T. brucei EC50
MetRS (T. brucei) = MetRS (T. brucei) (Trypanosoma brucei brucei, UniProt Q38C91); assay: MetRS (T. brucei) ATP depletion assay using Kinase-Glo; format: biochemical
MetRS (T. brucei), sequence (Q38C91 entry or part of it): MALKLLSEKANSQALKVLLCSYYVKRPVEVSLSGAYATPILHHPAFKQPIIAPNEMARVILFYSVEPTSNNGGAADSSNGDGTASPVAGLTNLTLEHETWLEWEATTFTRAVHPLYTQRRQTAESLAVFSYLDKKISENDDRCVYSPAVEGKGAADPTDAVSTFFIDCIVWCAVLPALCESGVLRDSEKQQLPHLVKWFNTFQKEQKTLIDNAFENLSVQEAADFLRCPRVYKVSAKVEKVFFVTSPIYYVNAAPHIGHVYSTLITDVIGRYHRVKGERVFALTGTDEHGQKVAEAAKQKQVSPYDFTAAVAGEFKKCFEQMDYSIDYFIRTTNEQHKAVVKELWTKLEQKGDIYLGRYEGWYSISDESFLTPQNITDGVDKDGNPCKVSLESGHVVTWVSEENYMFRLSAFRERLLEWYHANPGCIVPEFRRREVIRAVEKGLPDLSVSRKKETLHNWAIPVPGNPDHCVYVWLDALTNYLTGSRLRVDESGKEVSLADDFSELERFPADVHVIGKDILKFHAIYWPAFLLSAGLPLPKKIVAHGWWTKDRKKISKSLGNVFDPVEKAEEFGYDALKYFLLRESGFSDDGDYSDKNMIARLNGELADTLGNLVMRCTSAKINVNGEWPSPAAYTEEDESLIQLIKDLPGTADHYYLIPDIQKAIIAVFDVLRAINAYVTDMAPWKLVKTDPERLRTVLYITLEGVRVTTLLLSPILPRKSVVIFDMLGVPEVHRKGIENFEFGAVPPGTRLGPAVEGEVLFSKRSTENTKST

Compound	pEC50 (T. brucei)	pIC50 (MetRS (T. brucei))
CC(=O)N(Cc1cc(Cl)cc(Cl)c1)C1CCCC(c2nc3cc(Cl)ccc3[nH]2)C1 (stereo not drawn) [Compound 1861, N-(3-(5-chloro-1H-benzo[d]imidazol-2-yl)cyclohexyl)-N-(3,5-dichlorobenzyl)acetamide]	5.35	5.83
Clc1cc(Cl)c(Cl)c(CN[C@H]2CCCN(c3nc4nc(Cl)ccc4[nH]3)C2)c1 [Compound 1902, (S)-1-(5-chloro-1H-imidazo[4,5-b]pyridin-2-yl)-N-(2,3,5-trichlorobenzyl)piperidin-3-amine]	6.45	7.74
Clc1cc(Cl)cc(CNCc2nc3ccc(Br)cc3[nH]2)c1 [Compound 1853, N-(3,5-dichlorobenzyl)(6-bromo-1H-benzo[d]imidazol-2-yl)methanamine]	< 4.70	< 5.00
Clc1cc(Cl)cc(CNC2CN(c3nc4nc(Cl)ccc4[nH]3)C2)c1 [Compound 1864, 1-{5-chloro-1H-imidazo[4,5-b]pyridin-2-yl}-N-[(3,5-dichlorophenyl)methyl]azetidin-3-amine]	< 4.70	5.66
CC(=O)N(Cc1cc(Cl)cc(Cl)c1)[C@@H]1CCC[C@H](c2nc3nc(F)ccc3[nH]2)C1 [Compound 1932, N-(3,5-dichlorobenzyl)-N-((1R,3S)-3-(5-fluoro-1H-imidazo[4,5-b]pyridin-2-yl)cyclohexyl)acetamide]	5.05	6.29
Nc1nc(Cl)ccc1NC(=O)C1CN(C(=O)Cc2cc(Cl)cc(Cl)c2)CCN1 (stereo not drawn) [Compound 1791, N-(2-amino-6-chloropyridin-3-yl)-4-(2-(3,5-dichlorophenyl)acetyl) piperazine-2-carboxamide]	< 4.70	5.07
CC[C@@H](Cc1nc2ccc(Cl)cc2[nH]1)NCc1cc(Cl)cc(Cl)c1 [Compound 1827, [(2S)-1-(6-chloro-1H-1,3-benzodiazol-2-yl)butan-2-yl][(3,5-dichlorophenyl)methyl]amine]	5.30	6.41
O=C(Cc1cc(Cl)cc(Cl)c1)N1CCCC(c2nc3cc(F)ccc3[nH]2)C1 (stereo not drawn) [Compound 1744, 2-(3,5-dichlorophenyl)-1-(3-(5-fluoro-1H-benzo[d]imidazol-2-yl)piperidin-1-yl)ethanone]	5.49	6.74
COc1ccc(Oc2cccc(NCCc3nc4ccccc4[nH]3)n2)c(Cl)c1 [Compound 1918, N-[2-(1H-1,3-benzodiazol-2-yl)ethyl]-6-(2-chloro-4-methoxyphenoxy)pyridin-2-amine]	5.02	5.95
O=C(NCc1cc(Cl)cc(Cl)c1)NCc1nc2ccc(Cl)nc2[nH]1 [Compound 1991, 3-({5-chloro-3H-imidazo[4,5-b]pyridin-2-yl}methyl)-1-[(3,5-dichlorophenyl)methyl]urea]	5.68	7.74
O=C(NCCc1ccc(Cl)cc1Cl)NCc1nc2ccccc2[nH]1 [Compound 1702, 1-((1H-benzo[d]imidazol-2-yl)methyl)-3-(2,4-dichlorophenethyl)urea]	5.30	8.05 and 7.96
Clc1cc(Cl)c(OC2CC2)c(CN[C@H]2CCCN(c3nc4nc(Cl)ccc4[nH]3)C2)c1 [Compound 1930, (S)-1-(5-chloro-1H-imidazo[4,5-b]pyridin-2-yl)-N-(3,5-dichloro-2-cyclopropoxybenzyl)piperidin-3-amine]	5.51	6.41
NC(Cc1nc2ccccc2[nH]1)C(=O)NCCc1ccc(Cl)cc1Cl (stereo not drawn) [Compound 1795, N-(2,4-dichlorophenethyl)-2-amino-3-(1H-benzo[d]imidazol-2-yl)propanamide]	4.91	< 5.00
Fc1ccc2nc(NCCCNc3ccc(Cl)cc3Cl)[nH]c2n1 [Compound 1956, N1-(2,4-dichlorophenyl)-N3-(5-fluoro-3H-imidazo[4,5-b]pyridin-2-yl)propane-1,3-diamine]	5.81	6.49
Clc1cc(Cl)cc(NCCNCc2nc3ccc(Cl)nc3[nH]2)c1 [Compound 1994, ({5-chloro-3H-imidazo[4,5-b]pyridin-2-yl}methyl)({2-[(3,5-dichlorophenyl)amino]ethyl})amine]	5.85	7.23
CC(=O)N(Cc1ccc(Cl)cc1Cl)C1CCCC(c2nc3nc(F)ccc3[nH]2)C1 (stereo not drawn) [Compound 1836, N-(2,4-dichlorobenzyl)-N-(3-(5-fluoro-1H-imidazo[4,5-b]pyridin-2-yl)cyclohexyl)acetamide]	5.12	5.84
O=C(NCCc1ccc(Cl)cc1Cl)OCc1nc2ccccc2[nH]1 [Compound 1739, [2-(2,4-Dichloro-phenyl)-ethyl]-carbamic acid 1H-benzoimidazol-2-ylmethyl ester]	< 5.00	5.84
Clc1ccc(CN[C@H]2CCN(c3nc4ccc(Cl)nc4[nH]3)C2)c(Cl)c1 [Compound 1846, (3S)-1-{5-chloro-3H-imidazo[4,5-b]pyridin-2-yl}-N-[(2,4-dichlorophenyl)methyl]pyrrolidin-3-amine]	4.96	5.79
O=C(Cc1cc(Cl)cc(Cl)c1)N1CCOC(c2nc3nc(Cl)ccc3[nH]2)C1 (stereo not drawn) [Compound 1790, 1-(2-(5-chloro-1H-imidazo[4,5-b]pyridin-2-yl)morpholino)-2-(3,5-dichlorophenyl)ethanone]	5.57	6.98
O=C(Cc1ccc(Cl)cc1Cl)NCc1nc2ccc(Cl)nc2[nH]1 [Compound 1876, N-({5-chloro-3H-imidazo[4,5-b]pyridin-2-yl}methyl)-2-(2,4-dichlorophenyl)acetamide]	< 4.70	6.43
O=C1N[C@@H](Cc2ccc(Cl)cc2Cl)C(O)N1Cc1nc2ccccc2[nH]1 (stereo partly drawn) [Compound 1934, (4S)-1-((1H-benzo[d]imidazol-2-yl)methyl)-4-(2,4-dichlorobenzyl)-5-hydroxyimidazolidin-2-one]	5.70	6.93
Clc1cc(Cl)cc(CN[C@H]2CCCN(C3=NCc4ccccc4N3)C2)c1 [Compound 1961]	5.42	6.92
O=C(Cc1cc(Cl)cc(Cl)c1)NCc1nc2cnc(Cl)cc2[nH]1 [Compound 1879, N-({6-chloro-1H-imidazo[4,5-c]pyridin-2-yl}methyl)-2-(3,5-dichlorophenyl)acetamide]	4.95	6.38
O=C1N[C@@H](Cc2ccc(Cl)cc2Cl)CN1Cc1nc2ccccc2[nH]1 [Compound 1792, 1-(1H-Benzoimidazol-2-ylmethyl)-4-(2,4-dichloro-benzyl)-imidazolidin-2-one]	5.57	6.82
CC(=O)N(Cc1ccc(Cl)cc1Cl)C1CCCC(c2nc3nc(Cl)ccc3[nH]2)C1 (stereo not drawn) [Compound 1810, N-(3-(5-chloro-1H-imidazo[4,5-b]pyridin-2-yl)cyclohexyl)-N-(2,4-dichlorobenzyl)acetamide]	5.34	6.44
Clc1cc(Cl)c(OCC2CC2)c(CN[C@H]2CCCN(c3nc4nc(Cl)ccc4[nH]3)C2)c1 [Compound 1929, (S)-1-(5-chloro-1H-imidazo[4,5-b]pyridin-2-yl)-N-(3,5-dichloro-2-(cyclopropylmethoxy)benzyl)piperidin-3-amine]	6.29	7.54
COC(=O)N(CCCNc1nc2ccc(F)nc2n1C(=O)OC)Cc1cc(Cl)cc(Cl)c1 [Compound 1965, methyl 3,5-dichlorobenzyl3-(3-(methoxycarbonyl)-5-fluoro-3H-imidazo[4,5-b]pyridin-2-ylamino)propylcarbamate]	7.02	6.46 and 6.49
